Values quoted from earlier work, collected in US9687433B2, “Anhydrous depigmenting compositions comprising phenolic compounds” (Ecstasy LLC, priority 2015, dated 2017).

Details: degraded to hydroquinone

stability in aqueous solutions: thermolabile and acid sensitive
SMILES: Oc1ccc(OC2CCCCO2)cc1 (stereo not shown) [deoxyarbutin, 4-[(tetrahydro-2H-pyran-2-yl)oxy] phenol]
